Results taken from patent US20220135591A1, “HETEROCYCLIC COMPOUNDS AS INHIBITORS OF MONOACYLGLYCEROL LIPASE (MAGL)” (Hoffmann-La Roche Inc., priority 2019, published 2022).

These compounds were tested against T1, MAGL (recombinant wild-type) (Homo sapiens, UniProt Q99685) (assay: 4-NPA assay: MAGL inhibitory activity by hydrolysis of 4-nitrophenylacetate, absorbance at 405 nm). Conditions: 4-NPA assay (values without footnote [b]).
T1 sequence (Q99685 1-303): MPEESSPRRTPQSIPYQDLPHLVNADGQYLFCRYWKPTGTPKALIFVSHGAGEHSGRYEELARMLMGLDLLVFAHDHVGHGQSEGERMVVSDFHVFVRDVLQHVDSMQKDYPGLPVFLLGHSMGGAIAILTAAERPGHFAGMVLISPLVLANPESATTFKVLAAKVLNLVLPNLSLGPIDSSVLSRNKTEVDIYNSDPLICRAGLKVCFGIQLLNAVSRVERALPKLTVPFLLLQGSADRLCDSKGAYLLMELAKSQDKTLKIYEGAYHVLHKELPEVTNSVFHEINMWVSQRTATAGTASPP
Assay type: biochemical
Procedure, shortened: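 Final assay: 1 nM MAGL and 300 μM 4-nitrophenylacetate in 50 mM Tris, 1 mM EDTA, at RT. Compounds (25 μM–1.7 nM, 3-fold steps) were preincubated 15 min with enzyme. A405 was read 5 min after substrate addition and again after 80 min; activity was taken as the difference between reads.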

| SMILES | IC50 |
| --- | --- |
| Cc1ccc2oc(N3CCN(C(=O)c4ccc(C5(F)CC5)cc4)CC3)nc2n1 [Example 68, (4-(1-fluorocyclopropyl)phenyl)(4-(5-methyloxazolo[4,5-b]pyridin-2-yl)piperazin-1-yl)methanone] | 4180 nM |
| Cc1ccc2oc(N3CCN(C(=O)c4cc(Cl)cc(N5CCC(CO)CC5)c4)CC3)nc2n1 [Example 178, [3-chloro-5-[4-(hydroxymethyl)piperidin-1-yl]phenyl]-[4-(5-methyl-[1,3]oxazolo[4,5-b]pyridin-2-yl)piperazin-1-yl]methanone] | 2490 nM |
| CC(C)(C)Cc1nc(-c2ccc(C(=O)N3CCN(c4nc5nccc(Cl)c5o4)CC3)cc2)no1 [Example 9, (4-(7-chlorooxazolo[4,5-b]pyridin-2-yl)piperazin-1-yl)(4-(5-neopentyl-1,2,4-oxadiazol-3-yl)phenyl)methanone] | 27 nM |
| CC(C)(C)c1nc(-c2ccc(C(=O)N3CCN(c4nc5nc(Cl)ccc5o4)CC3)cc2F)no1 [Example 59, [4-(5-tert-butyl-1,2,4-oxadiazol-3-yl)-3-fluoro-phenyl]-[4-(5-chlorooxazolo[4,5-b]pyridin-2-yl)piperazin-1-yl]methanone] | 15 nM |
| Cc1ccc2oc(N3CCN(C(=O)c4cnc(OCC5(C)CC5)c(Cl)c4)CC3)nc2n1 [Example 146, (5-chloro-6-((1-methylcyclopropyl)methoxy)pyridin-3-yl)(4-(5-methyloxazolo[4,5-b]pyridin-2-yl)piperazin-1-yl)methanone] | 135 nM |
| CC(C)(CF)c1nnc(-c2ccc(C(=O)N3CCN(c4nc5nc(Cl)ccc5o4)CC3)cc2)o1 [Example 34, [4-(5-chlorooxazolo[4,5-b]pyridin-2-yl)piperazin-1-yl]-[4-[5-(2-fluoro-1,1-dimethyl-ethyl)-1,3,4-oxadiazol-2-yl]phenyl]methanone; 2,2,2-trifluoroacetic acid] | 176 nM |
| Cc1ccc2oc(N3CCN(C(=O)c4c(F)cc(N5CC(OC(C)C(F)(F)F)C5)cc4F)CC3)nc2n1 (stereo not drawn) [Example 212, (2,6-difluoro-4-(3-((1,1,1-trifluoropropan-2-yl)oxy)azetidin-1-yl)phenyl)(4-(5-methyloxazolo[4,5-b]pyridin-2-yl)piperazin-1-yl)methanone] | 1130 nM |
| CCCCc1nc2ccc(C(=O)N3CCN(c4nc5nc(C)ccc5o4)CC3)cc2o1 [Example 263, (2-butyl-1,3-benzoxazol-6-yl)-[4-(5-methyloxazolo[4,5-b]pyridin-2-yl)piperazin-1-yl]methanone] | 181 nM |
| O=C(c1cnc(N2CCC3(C2)CC3(F)F)c(F)c1)N1CCN(c2nc3nc(Cl)ccc3o2)CC1 (stereo not drawn) [Example 230, (4-(5-chlorooxazolo[4,5-b]pyridin-2-yl)piperazin-1-yl)(6-(1,1-difluoro-5-azaspiro[2.4]heptan-5-yl)-5-fluoropyridin-3-yl)methanone] | 56 nM |
| CC1(COc2ccc(C(=O)N3CCN(c4nc5nc(Cl)ccc5o4)CC3)cc2Cl)CC1 [Example 60, [3-chloro-4-[(1-methylcyclopropyl)methoxy]phenyl]-[4-(5-chlorooxazolo[4,5-b]pyridin-2-yl)piperazin-1-yl]methanone] | 46 nM |
| Cc1ccc2oc(N3CCN(C(=O)c4ccc(OCCC(F)(F)F)c(-c5ccc(CO)cc5)c4)CC3)nc2n1 [Example 184, [3-[4-(hydroxymethyl)phenyl]-4-(3,3,3-trifluoropropoxy)phenyl]-[4-(5-methyl-[1,3]oxazolo[4,5-b]pyridin-2-yl)piperazin-1-yl]methanone] | 78 nM |
| Cc1ccc2oc(N3CCN(C(=O)c4ccc5nc(N6CC7(CCCC7)C6)oc5c4)CC3)nc2n1 [Example 6, (2-(2-azaspiro[3.4]octan-2-yl)benzo[d]oxazol-6-yl)(4-(5-methyloxazolo[4,5-b]pyridin-2-yl)piperazin-1-yl)methanone] | 25 nM |
| Cc1ccc2oc(N3CCN(C(=O)c4cnc(N5CC(OC(C)C(F)(F)F)C5)c(F)c4Cl)CC3)nc2n1 (stereo not drawn) [Example 217, (4-chloro-5-fluoro-6-(3-((1,1,1-trifluoropropan-2-yl)oxy)azetidin-1-yl)pyridin-3-yl)(4-(5-methyloxazolo[4,5-b]pyridin-2-yl)piperazin-1-yl)methanone] | 167 nM |
| CC1(COc2ccc(C(=O)N3CCN(c4nc5nc(Cl)ccc5o4)CC3)cc2F)CC1 [Example 69, [4-(5-chlorooxazolo[4,5-b]pyridin-2-yl)piperazin-1-yl]-[3-fluoro-4-[(1-methylcyclopropyl)methoxy]phenyl]methanone] | 108 nM |
| Cc1ccc2oc(N3CCN(C(=O)c4ccc(N5CC(Oc6ccccc6)C5)cc4)CC3)nc2n1 [Example 198, (4-(5-methyloxazolo[4,5-b]pyridin-2-yl)piperazin-1-yl)(4-(3-phenoxyazetidin-1-yl)phenyl)methanone] | 46 nM |
| CCOC1(C)CN(c2ccc(C(=O)N3CCN(c4nc5nc(Cl)ccc5o4)CC3)cc2)C1 [Example 209, (4-(5-chlorooxazolo[4,5-b]pyridin-2-yl)piperazin-1-yl)(4-(3-ethoxy-3-methylazetidin-1-yl)phenyl)methanone] | 235 nM |
| CC(C)(C)c1nc(-c2ccc(C(=O)N3CCN(c4nc5nc(Cl)ccc5o4)CC3)cn2)no1 [Example 61, [6-(5-tert-butyl-1,2,4-oxadiazol-3-yl)-3-pyridyl]-[4-(5-chlorooxazolo[4,5-b]pyridin-2-yl)piperazin-1-yl]methanone] | 272 nM |
| Cc1ccc2oc(N3CCN(C(=O)c4cnc(OCC5(C)CC5)c(C)c4)CC3)nc2n1 [Example 142, (5-methyl-6-((1-methylcyclopropyl)methoxy)pyridin-3-yl)(4-(5-methyloxazolo[4,5-b]pyridin-2-yl)piperazin-1-yl)methanone] | 106 nM |
| Cc1ccc2oc(N3CCN(C(=O)c4ccc(OCC5(C(F)(F)F)CC5)c(-c5ccc(CO)cc5)c4)CC3)nc2n1 [Example 183, [3-[4-(hydroxymethyl)phenyl]-4-[[1-(trifluoromethyl)cyclopropyl]methoxy]phenyl]-[4-(5-methyl-[1,3]oxazolo[4,5-b]pyridin-2-yl)piperazin-1-yl]methanone] | 10 nM |

The remaining lines, values ahead:

| IC50 | SMILES |
| --- | --- |
| 37 nM | CC(C)(C)Cc1nc(-c2ccc(C(=O)N3CCN(c4nc5ncccc5o4)CC3)cc2)no1 [Example 13, (4-(5-neopentyl-1,2,4-oxadiazol-3-yl)phenyl)(4-(oxazolo[4,5-b]pyridin-2-yl)piperazin-1-yl)methanone] |
| 11 nM | Cc1ccc2oc(N3CCN(C(=O)c4ccc(OCC(C)(C)C)c(C)c4)CC3)nc2n1 [Example 65, [4-(2,2-dimethylpropoxy)-3-methyl-phenyl]-[4-(5-methyloxazolo[4,5-b]pyridin-2-yl)piperazin-1-yl]methanone] |
| 10 nM | CC(C)(C)Cc1nnc(-c2ccc(C(=O)N3CCN(c4nc5nc(Cl)ccc5o4)CC3)cc2)o1 [Example 16, [4-(5-chlorooxazolo[4,5-b]pyridin-2-yl)piperazin-1-yl]-[4-[5-(2,2-dimethylpropyl)-1,3,4-oxadiazol-2-yl]phenyl]methanone] |
| 257 nM | Cc1ccc2oc(N3CCN(C(=O)c4ccc(-c5noc(C6(CF)CC6)n5)cc4)CC3)nc2n1 [Example 36, [4-[5-[1-(fluoromethyl)cyclopropyl]-1,2,4-oxadiazol-3-yl]phenyl]-[4-(5-methyloxazolo[4,5-b]pyridin-2-yl)piperazin-1-yl]methanone] |
| 653 nM | CC(C)(O)Cc1nc(-c2ccc(C(=O)N3CCN(c4nc5nc(Cl)ccc5o4)CC3)cc2)no1 [Example 32, [4-(5-chlorooxazolo[4,5-b]pyridin-2-yl)piperazin-1-yl]-[4-[5-(2-hydroxy-2-methyl-propyl)-1,2,4-oxadiazol-3-yl]phenyl]methanone] |
| 471 nM | COc1ccc2oc(N3CCN(C(=O)c4ccc(-c5noc(C(C)(C)C)n5)cc4)CC3)nc2n1 [Example 197, (4-(5-(tert-butyl)-1,2,4-oxadiazol-3-yl)phenyl)(4-(5-methoxyoxazolo[4,5-b]pyridin-2-yl)piperazin-1-yl)methanone] |
| 3 nM | CC(C)(C)Cn1cnc(-c2ccc(C(=O)N3CCN(c4nc5nc(Cl)ccc5o4)CC3)cc2)n1 [Example 27, [4-(5-chlorooxazolo[4,5-b]pyridin-2-yl)piperazin-1-yl]-[4-[1-(2,2-dimethylpropyl)-1,2,4-triazol-3-yl]phenyl]methanone] |
| 37 nM | Cc1ccc2oc(N3CCN(C(=O)c4ccc(-c5cnn(C(C)(C)C)c5)cc4)CC3)nc2n1 [Example 47, [4-(1-tert-butylpyrazol-4-yl)phenyl]-[4-(5-methyloxazolo[4,5-b]pyridin-2-yl)piperazin-1-yl]methanone] |
| 128 nM | CC(C)(C)c1nc(-c2ccc(C(=O)N3CCN(c4nc5ncccc5o4)CC3)cc2)no1 [Example 14, (4-(5-(tert-butyl)-1,2,4-oxadiazol-3-yl)phenyl)(4-(oxazolo[4,5-b]pyridin-2-yl)piperazin-1-yl)methanone] |
| 63 nM | Cc1ccc2oc(N3CCN(C(=O)c4ccc(-n5cnc(C(C)(C)C)c5)cc4)CC3)nc2n1 [Example 55, [4-(4-tert-butylimidazol-1-yl)phenyl]-[4-(5-methyloxazolo[4,5-b]pyridin-2-yl)piperazin-1-yl]methanone] |
| 12 nM | Cc1ccc2oc(N3CCN(C(=O)c4ccc(-c5ncn(CC(C)(C)C)n5)cc4)CC3)nc2n1 [Example 28, [4-[1-(2,2-dimethylpropyl)-1,2,4-triazol-3-yl]phenyl]-[4-(5-methyloxazolo[4,5-b]pyridin-2-yl)piperazin-1-yl]methanone] |
